Assay results: patent US6043283A, “Tyramine compounds and their neuronal effects” (priority 1997, dated 2000)
“Also recorded” adds a separate entry of the source. Where two headings read alike, the source gives them in different places. Ends that are not written are not given here.

Columns and labels:
[1] = system: NTox released by Aβ1-42-stimulated microglia (neuron killing); assay: cells; format: cell-based, rat; details: for neuroprotective effect: Aβ1-42-stimulated microglia; for protective effect: 10 μM, 72 hours, FIG. 30
Text: . Briefly, hippocampal cells obtained from embryonic stage 18 rat fetuses were dispersed mechanically in the presence of 0.125% trypsin and plated onto poly-L-lysine coated glass coverslips in 24 well plates at 250,000 cells per well (resulting in adhering cell densities of about 1250 cells per mm^2) in chemically-defined N2 culture media containing 5% fetal bovine serum. Gradual reduction of serum began on day 10 in vitro with daily 1:1 volume replacements with chemically-defined media, until a final concentration of 0.6% serum was achieved. […]; see FIG. 18). In order to eliminate microglia, cultures were exposed to saporin (sap; a ribosome-inactivating protein; Davis and Wiley, 1989) coupled to acetylated LDL (ac-LDL) at a concentration of 10 μg/ml for 12 hours. […] Cultures depleted of microglia were then exposed to test substances in the presence or absence of exogenous microglia (100,000 cells per culture). […]. Controls included cultures without saporin-treatment, cultures without test substances, and cultures with test substances but lacking microglia.
(§1) On day 14 of culture, immediately following saporin treatment, test substances were added to the hippocampal cultures. Synthetic peptide were supplied as 1 mM stock solutions in 0.1 M phosphate buffered saline, pH 7.2, stored for at least 1 week at 4° C. before use. After 72 hours incubation, the cultures were fixed in 4% paraformaldehyde at room temperature for 18 hours and immuno-stained by overnight incubation with a mixture of anti-neurofilament antibodies (NF; SMI-311, 1:600; Stemberger Monoclonals, Inc.) plus anti-MAP-2 (Boehringer Mannheim, 184959; 1:600) at 4° C. in the presence of 2% horse serum and 0.3% triton X-100 to delineate both neuronal cell bodies and neurites. Astroglia were visualized using sheep anti-glial fibrillary acidic protein (GFAP, Sigma) as described by Giulian et al., 1989. Finally, to label all cell nuclei, the coverslips were exposed to 0.01% bisbenzimide (Hoechst 33258; Sigma) in PBS, pH 6.9, and rinsed in distilled water and mounted in glycerin. Immuno-labeled cells per field and nuclei per field were scored at 200X magnification using fluorescence microscopy. Data were expressed as % mean survival expressed in terms of parallel untreated control cultures after scoring at least 20 randomly selected fields for each of 3 coverslips.
The procedures described above and by Giulian et al, 1996, provided for the identification of tyramine compounds as therapeutic agents for neurodegenerative diseases or disorders including, for example, Alzheimer's disease. Cells from the brain of fetal rats were grown in tissue cultures. Microglial populations within the cultures were controlled following the method described in Example 5 above. Known amounts of Aβ peptides coupled to microspheres were added to the culture. The Aβ spheres stimulated the microglia to release NTox, which in turn destroyed the neurons. The neurons in the cultures were monitored for survival by immuno-staining.
Generally, drug assays involve the addition of known concentrations of a test agent over a range of concentrations. After 72 hours, the experiment is stopped and the neurons are identified by immuno-staining. The data is expressed as % neuronal survival […]. Dose response curves are then used to estimate Effective Dose50 % (ED50) of neuroprotective agents. […].
In this experiment, about 65% of the neurons were destroyed by the Aβ-stimulated microglia. […] Other tyramine compounds, including tyrosine esters, were neuroprotective (FIG. 30).
Following the methods described herein, numerous compounds were examined to determine their neuroprotective activity. […]

[2] = system: Aβ1-42-stimulated microglia; format: cell-based, rat; details: for effect of signal transduction inhibitors on microglia stimulated by Aβ1-42: 0.01 to 100 μM, FIG. 11
Text: Briefly, hippocampal cells obtained from embryonic stage 18 rat fetuses were dispersed mechanically in the presence of 0.125% trypsin and plated onto poly-L-lysine coated glass coverslips in 24 well plates at 250,000 cells per well (resulting in adhering cell densities of about 1250 cells per mm^2) in chemically-defined N2 culture media containing 5% fetal bovine serum. Gradual reduction of serum began on day 10 in vitro with daily 1:1 volume replacements with chemically-defined media, until a final concentration of 0.6% serum was achieved. […] In order to eliminate microglia, cultures were exposed to saporin (sap; a ribosome-inactivating protein; Davis and Wiley, 1989) coupled to acetylated LDL (ac-LDL) at a concentration of 10 μg/ml for 12 hours. […] Cultures depleted of microglia were then exposed to test substances in the presence or absence of exogenous microglia (100,000 cells per culture). […] Controls included cultures without saporin-treatment, cultures without test substances, and cultures with test substances but lacking microglia.
as §1

[3] = system: rat microglia / hippocampal neurons; details: rat microglia; mostly 1 μmole/l
[4] = system: microglia; assay: inhibition of SpheresAβ1-42 binding to microglia; set-up: species or system rat; details: for inhibition of SpheresAβ1-42 binding by GAGs and scavenger receptor ligands: heparin sulfate 50 μg/ml, dextran sulfate 500 μg/ml, ac-LDL 200 μg/ml
Method: Spheresmal-BSA (which bind to scavenger receptors) or SpheresAβ1-42 were incubated with microglia for 4 hours following pre-treatment of cells with trypsin (5000 units/ml at 37° C. for 60 min followed by inactivation with soybean trypsin inhibitor), with heparinase (heparin lyase EC 4.2.2.7; two consecutive treatments each of 0.01 units/ml for 60 min), or with chondroitinase ABC (chondroitin ABC lyase EC 4.3.3.4; two consecutive treatments each of 0.02 units/ml for 60 min). […] Microglia mixed with hippocampal neurons were treated with combinations of β-D-xyloside (1 mm), heparinase (0.02 units/ml), or chondroitinase (0.04 units/ml) and then exposed to plaques.
Each well then received 250,000 SpheresAβ1-42 or Spheresmal-BSA in the presence or absence of Aβ peptides, GAGs, or scavenger receptor ligands. Binding assays were carried out at 37° C. for 4 hours after which coverslips were dipped 10 times in phosphate buffer and fixed with 4% buffered paraformaldehyde. Microsphere adherence to cells was scored at 200 magnification with phase/fluorescence microscopy. Data, expressed as % inhibition of sphere binding, was calculated from total number of spheres per field noted for control cultures receiving spheres only. Values are based upon at least 3 coverslips from 2 independent experiments. […] Washed spheres were resuspended in 0.2 M borate buffer (pH 8.5) in the presence of 300 μg Aβ or 400 μg BSA in 6% DMSO. After overnight mixing at room temperature, the spheres were washed extensively and blocked by 1 M glycine (pH 8.0) for 30 minutes.

[5] = system: rat microglia; assay: binding of Aβ-coupled microspheres to microglia; details: 4 hours at 37° C. (72 h in FIG. 23)

Compound: CCCCOc1ccc(O)cc1 [4-butoxyphenol]
- neuroprotective activity (structure/function) ([1]; Example 14): little or no neuroprotective activity

Compound: NC(Cc1cc(O)c(O)cc1O)C(=O)O (stereo not shown) [6--OH DOPA]
- neuroprotective activity (structure/function) ([1]; Example 14): little or no neuroprotective activity

Compound: NCCc1cc(O)c(O)cc1O [6--OH dopamine]
- neuroprotective activity (structure/function) ([1]; Example 14): little or no neuroprotective activity

Compound: N[C@@H](Cc1ccc(O)c(O)c1)C(=O)O [DOPA]
- neuroprotective activity (structure/function) ([1]; Example 14): little or no neuroprotective activity

Compound: CC(=O)NCCc1ccc(O)cc1 [acetylated tyramine]
- neuroprotective activity (structure/function) [1]: little or no neuroprotective activity

Compound: CCN(CC)CCCC(C)Nc1ccnc2cc(Cl)ccc12 (stereo not shown) [chloroquine]
- effect of immunosuppressive drugs on microglia stimulated by Aβ1-42 ([2]; 0.1 to 10 μM, FIG. 10): had a protective effect; also recorded: inhibit neuron killing

Compound: COc1c(C=O)c(O)cc2c1C(=O)c1ccccc1C2=O [damacanthal]
- effect of signal transduction inhibitors on microglia stimulated by Aβ1-42 [2]: had a protective effect

Compound: CC(C)(C)OC(=O)[C@@H](N)Cc1cc(I)c(O)c(I)c1 [di-iodinated tyrosine t-butyl ester]
- neuroprotective effect [1]: have neuroprotective effects
- neuroprotective activity (structure/function) ([1]; Example 14): enhance neuroprotective effects

Compound: NCCc1ccc(O)c(O)c1 [dopamine]
- neuroprotective activity (structure/function) [1]: little or no neuroprotective activity

Compound: CN[C@@H](C)[C@H](O)c1ccccc1 [ephedrine]
- neuroprotective activity (structure/function) ([1]; Example 14): little or no neuroprotective activity

Compound: CNC[C@H](O)c1ccc(O)c(O)c1 [epinephrine]
- neuroprotective activity (structure/function) [1]: little or no neuroprotective activity

Compound: O=c1c(-c2ccc(O)cc2)coc2cc(O)cc(O)c12 [genistein]
- effect of signal transduction inhibitors on microglia stimulated by Aβ1-42 [2]: had a protective effect

Compound: CC(C)(C)OC(=O)[C@@H](N)Cc1ccc(O)c(I)c1 [mono-iodinated tyrosine t-butyl ester]
- neuroprotective effect [1]: have neuroprotective effects
- neuroprotective activity (structure/function) ([1]; Example 14): enhance neuroprotective effects

Compound: NC[C@H](O)c1ccc(O)c(O)c1 [norepinephrine]
- neuroprotective activity (structure/function) ([1]; Example 14): little or no neuroprotective activity

Compound: NCCc1ccccc1 [phenethylamine]
- neuroprotective activity (structure/function) ([1]; Example 14): little or no neuroprotective activity

Compound: Nc1ccccc1N [phenylenediamine]
- neuroprotective activity (structure/function) ([1]; Example 14): little or no neuroprotective activity

Compound: Oc1cccc(O)c1 [resorcinol]
- neuroprotective activity (structure/function) ([1]; Example 14): little or no neuroprotective activity

Compound: NC(=O)[C@@H](N)Cc1ccc(O)cc1 [tyrosinamide]
- neuroprotective activity (structure/function) ([1]; Example 14): little or no neuroprotective activity

Compound: C=CCOC(=O)[C@@H](N)Cc1ccc(O)cc1 [tyrosine allyl ester]
- protective effect [1]: neuron survival was markedly enhanced
- neuroprotective activity (structure/function) ([1]; Example 14): enhance neuroprotective effects

Compound: CCOC(=O)[C@@H](N)Cc1ccc(O)cc1 [tyrosine ethyl ester]
- neuroprotective activity (structure/function) ([1]; Example 14): little or no neuroprotective activity

Compound: NNC(=O)[C@@H](N)Cc1ccc(O)cc1 [tyrosine hydrazide]
- neuroprotective activity (structure/function) ([1]; Example 14): little or no neuroprotective activity

Compound: COC(=O)[C@@H](N)Cc1ccc(O)cc1 [tyrosine methyl ester]
- neuroprotective activity (structure/function) ([1]; Example 14): little or no neuroprotective activity

Compound: N[C@@H](Cc1ccc(O)cc1)C(=O)Nc1ccc2ccccc2c1 [tyrosine β-naphthylamide]
- neuroprotective activity (structure/function) ([1]; Example 14): enhance neuroprotective effects

Compound: N[C@@H](Cc1ccc(O)cc1)C(=O)O [tyrosine]
- protective effect [1]: no protective effect
- neuroprotective activity (structure/function) ([1]; Example 14): little or no neuroprotective activity

Compound: Aβ1-42Gln13Gln14: synthetic peptide Aβ1-42Gln13Gln14
- induction of neurotoxic microglia / neuron killing [3]: unable to elicit neurotoxic responses
- inhibition of SpheresAβ1-42 binding by peptides ([4]; 10 μmoles/l, 4 hours, 37° C.): unable to block

Compound: Aβ10-42: Aβ peptide residues 10-42 (YEVHHQKLVFFAEDVGSNKGAIIGLMVGGVVIA; Amyloid-beta protein 42; UniProt P05067 681-713, looked up, fragment)
- binding of peptide-coupled microspheres to microglia [5]: bound to microglia

Compound: Aβ17-43-microspheres: Aβ17-43 coupled to fluorescent microspheres (LVFFAEDVGSNKGAIIGLMVGGVVIAT; also: coupled to fluorescent microspheres; UniProt P05067 688-714, looked up, fragment)
- binding of peptide-coupled microspheres to microglia [5]: no consistent association with microglia
- binding of peptide-coupled microspheres to microglia ([5]; listed as Aβ17-43 coupled microspheres): not engulfed by microglia

Compound: chondroitin sulfate
- inhibition of SpheresAβ1-42 binding by GAGs and scavenger receptor ligands [4]: only heparin sulfate blocked; also recorded: not similar compounds

Compound: heparin sulfate
- inhibition of SpheresAβ1-42 binding by GAGs and scavenger receptor ligands [4]: blocked; also recorded: reduction of binding
- inhibition of SpheresAβ1-42 binding by GAGs and scavenger receptor ligands ([4]; listed as heparan sulfate): block Aβ binding to microglia

Compound: tyrosine butyl ester
- protective effect [1]: neuron survival was markedly enhanced
